Drawing on patent US9227971B2, “Pyrazolo[1,5-a]pyrimidine compounds as mTOR inhibitors” (Merck Sharp & Dohme Corp., priority 2010, dated 2016), this text covers IC50 for eight compounds.

SMILES strings stand for the structures. Read-outs that look alike come from different tables or passages of the source.

For assay [1], the system named is phosphorylated 4E-BP1 Thr37/46 (p4E-BP1 Thr37/46), mTORC1 activity, PC3 cells. Kind of assay: mTOR target engagement assay, immunofluorescent cell-based, p4E-BP1 Thr37/46 readout (mTORC1 activity). The note with it: Homo sapiens, read-out: p4E-BP1 Thr37/46 IC50. In short, it runs like this: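 PTEN-mutant PC3 prostate cells were treated with serially diluted compound in 5% FBS F12 medium (0.25% DMSO) for ninety minutes at 37° C, glyoxal-fixed, then immunostained overnight at 4° C for p4E-BP1 Thr37/46 with an Alexa Fluor 488 secondary. IC50 came from four-parameter fits of fluorescence, DMSO-only wells defining 100%.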

Assay [2] relates to phosphorylated AKT Ser473 (pAKT S473), mTORC2 activity, PC3 cells. Kind of assay: mTOR target engagement assay, immunofluorescent cell-based, pAKT S473 readout (mTORC2 activity). As to conditions: Homo sapiens. In short, it runs like this:
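After blocking, cells were stained overnight at 4 °C with anti-pAKT S473 antibody, then a fluorescent secondary; inhibition was read as reduced fluorescence intensity.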

[3] abbreviates: PC-3, PC3 cells, compound treatment ninety minutes at 37° C.

Consider `CS(=O)(=O)c1c([C@@H]2C[C@H]3CC[C@@H](C2)N3C(=O)c2cc(CN)n[nH]2)nc2c(-c3ccc(-c4ccccc4)nc3)cnn2c1N` [Compound 3.85, ((1R,3s,5S)-3-(7-amino-6-(methylsulfonyl)-3-(6-phenylpyridin-3-yl)pyrazolo[1,5-a]pyrimidin-5-yl)-8-azabicyclo[3.2.1]octan-8-yl)(3-(aminomethyl)-1H-pyrazol-5-yl)methanone], for which the IC50 was 1 to 100 nM in assay [1] (PC-3, Table 3-1, PC3 cells) and 1 to 100 nM in assay [2] (PC-3, Table 3-1, PC3 cells).

With `CS(=O)(=O)c1c([C@@H]2C[C@H]3CC[C@@H](C2)N3C(=O)[C@@H]2COC(=O)N2)nc2c(-c3ccc(-c4ccccc4)nc3)cnn2c1N` [Compound 3.141, (S)-4-((1R,3R,5S)-3-(7-amino-6-(methylsulfonyl)-3-(6-phenylpyridin-3-yl)pyrazolo[1,5-a]pyrimidin-5-yl)-8-azabicyclo[3.2.1]octane-8-carbonyl)oxazolidin-2-one], the IC50 fell in the range of 1000 to 10000 nM in assay [1] (PC-3, Table 3-1, PC3 cells) and 1000 to 10000 nM in assay [2] (PC-3, Table 3-1, PC3 cells).

`CS(=O)(=O)c1c([C@@H]2C[C@H]3CC[C@@H](C2)N3C(=O)C2(O)CC2)nc2c(-c3ccc(-c4ccccc4)nc3)cnn2c1N` [Compound 3.12, ((1R,3s,5S)-3-(7-amino-6-(methylsulfonyl)-3-(6-phenylpyridin-3-yl)pyrazolo[1,5-a]pyrimidin-5-yl)-8-azabicyclo[3.2.1]octan-8-yl)(1-hydroxycyclopropyl)methanone]: the IC50 in assay [1] (PC-3, Table 3-1, PC3 cells) is 1000 to 10000 nM; in assay [2] (PC-3, Table 3-1, PC3 cells) it was 100 to 1000 nM.

For the compound `Cc1nnc(C(=O)N2[C@@H]3CC[C@H]2C[C@H](c2nc4c(-c5ccc(-c6ccccc6F)nc5)cnn4c(N)c2S(C)(=O)=O)C3)[nH]1` [Compound 3.133, ((1R,3s,5S)-3-(7-amino-3-(6-(2-fluorophenyl)pyridin-3-yl)-6-(methylsulfonyl)pyrazolo[1,5-a]pyrimidin-5-yl)-8-azabicyclo[3.2.1]octan-8-yl)(5-methyl-4H-1,2,4-triazol-3-yl)methanone], the IC50 in assay [1] (PC-3, Table 3-1, PC3 cells) was in the range of 1 to 100 nM; in assay [2] (PC-3, Table 3-1, PC3 cells), 1 to 100 nM.

`CC(=O)c1c([C@@H]2C[C@H]3CC[C@@H](C2)N3C(=O)c2nnc[nH]2)nc2c(-c3ccc([C@H](C)O)nc3)cnn2c1N` [Compound 7.34, 1-(5-((1R,3s,5S)-8-(4H-1,2,4-triazole-3-carbonyl)-8-azabicyclo[3.2.1]octan-3-yl)-7-amino-3-(6-((S)-1-hydroxyethyl)pyridin-3-yl)pyrazolo[1,5-a]pyrimidin-6-yl)ethanone]: the IC50 in assay [1] (PC-3, Table 7-4, PC3 cells) was 1 to 100 nM; in assay [2] (PC-3, Table 7-4, PC3 cells), 1 to 100 nM.

With `CC(=O)c1c([C@@H]2C[C@H]3CC[C@@H](C2)N3C(=O)CO)nc2c(-c3cnn(-c4ccccn4)c3)cnn2c1N` [Compound 1.1.162, 1-((1R,3s,5S)-3-(6-acetyl-7-amino-3-(1-(pyridin-2-yl)-1H-pyrazol-4-yl)pyrazolo[1,5-a]pyrimidin-5-yl)-8-azabicyclo[3.2.1]octan-8-yl)-2-hydroxyethanone], the IC50 in assay [1] (setting [3]) and in assay [2] (setting [3]) was 100 to 1000 nM each time.

For `CC(=O)c1c([C@@H]2C[C@H]3CC[C@@H](C2)N3C(=O)c2nnc[nH]2)nc2c(-c3ccc(-c4nccs4)nc3)cnn2c1N` [Compound 1.1.37, 1-(5-((1R,3s,5S)-8-(4H-1,2,4-triazole-3-carbonyl)-8-azabicyclo[3.2.1]octan-3-yl)-7-amino-3-(6-(thiazol-2-yl)pyridin-3-yl)pyrazolo[1,5-a]pyrimidin-6-yl)ethanone], the IC50 in assay [1] (setting [3]) and in assay [2] (setting [3]) was 1 to 100 nM in each case.

For `COc1ccc2ncc(-c3cnn4c(N)c(C5CC5)c([C@@H]5C[C@H]6CC[C@@H](C5)N6C(=O)c5nnc[nH]5)nc34)cc2c1` [Compound 4.24, ((1R,3s,5S)-3-(7-amino-6-cyclopropyl-3-(6-methoxyquinolin-3-yl)pyrazolo[1,5-a]pyrimidin-5-yl)-8-azabicyclo[3.2.1]octan-8-yl)(4H-1,2,4-triazol-3-yl)methanone], the IC50 in assay [1] (setting [3]) and in assay [2] (setting [3]) was 100 to 1000 nM each time.
